Laboratory results published in patent publication US20190282640A1 (priority 2016, published 2019).

Target: C5 (Homo sapiens, UniProt P01031)
Format: cell-based

Chain of C5 (P01031 678-1676): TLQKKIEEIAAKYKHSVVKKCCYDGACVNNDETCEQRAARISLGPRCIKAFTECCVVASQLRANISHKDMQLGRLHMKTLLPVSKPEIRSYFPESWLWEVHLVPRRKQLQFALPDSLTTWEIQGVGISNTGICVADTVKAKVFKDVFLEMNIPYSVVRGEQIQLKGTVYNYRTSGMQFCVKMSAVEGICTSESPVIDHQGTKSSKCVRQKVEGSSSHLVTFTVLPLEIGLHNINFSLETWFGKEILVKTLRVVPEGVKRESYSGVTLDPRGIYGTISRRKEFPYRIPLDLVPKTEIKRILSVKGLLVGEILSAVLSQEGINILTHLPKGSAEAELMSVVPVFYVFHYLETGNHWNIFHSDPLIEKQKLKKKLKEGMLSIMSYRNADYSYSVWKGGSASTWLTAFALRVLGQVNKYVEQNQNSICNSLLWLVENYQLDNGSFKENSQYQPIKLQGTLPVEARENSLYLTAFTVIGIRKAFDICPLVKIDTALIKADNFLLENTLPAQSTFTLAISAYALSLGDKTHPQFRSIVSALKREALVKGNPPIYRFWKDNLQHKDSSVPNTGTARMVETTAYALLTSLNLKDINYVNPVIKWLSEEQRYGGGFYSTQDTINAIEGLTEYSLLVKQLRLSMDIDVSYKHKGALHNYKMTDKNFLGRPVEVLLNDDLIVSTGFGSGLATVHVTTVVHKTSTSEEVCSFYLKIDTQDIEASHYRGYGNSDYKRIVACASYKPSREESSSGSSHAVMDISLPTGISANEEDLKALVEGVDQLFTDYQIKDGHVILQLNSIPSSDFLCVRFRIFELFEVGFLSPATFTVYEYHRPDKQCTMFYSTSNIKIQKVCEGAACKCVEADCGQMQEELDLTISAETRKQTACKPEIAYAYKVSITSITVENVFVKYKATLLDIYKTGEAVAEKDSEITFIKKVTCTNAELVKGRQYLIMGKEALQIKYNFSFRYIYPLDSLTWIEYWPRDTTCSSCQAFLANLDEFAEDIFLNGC
Chain of C5 (P01031 19-673): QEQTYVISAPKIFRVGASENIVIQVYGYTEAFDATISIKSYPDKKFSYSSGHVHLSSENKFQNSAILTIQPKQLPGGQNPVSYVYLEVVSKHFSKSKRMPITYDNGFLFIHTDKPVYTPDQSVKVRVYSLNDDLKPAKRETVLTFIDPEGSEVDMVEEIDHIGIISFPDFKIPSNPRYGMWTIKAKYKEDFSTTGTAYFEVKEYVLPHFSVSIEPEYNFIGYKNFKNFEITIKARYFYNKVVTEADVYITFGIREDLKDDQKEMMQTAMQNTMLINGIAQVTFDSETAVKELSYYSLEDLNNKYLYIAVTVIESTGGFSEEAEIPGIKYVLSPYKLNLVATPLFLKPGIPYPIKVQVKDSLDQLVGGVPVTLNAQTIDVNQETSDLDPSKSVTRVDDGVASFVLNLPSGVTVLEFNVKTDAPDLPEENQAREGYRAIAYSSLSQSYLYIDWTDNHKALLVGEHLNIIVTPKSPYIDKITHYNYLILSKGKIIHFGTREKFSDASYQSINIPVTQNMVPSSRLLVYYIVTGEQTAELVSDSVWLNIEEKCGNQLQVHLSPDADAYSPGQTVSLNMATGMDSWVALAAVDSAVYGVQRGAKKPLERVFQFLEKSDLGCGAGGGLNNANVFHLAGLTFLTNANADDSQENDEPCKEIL

Substance: Eculizumab
- effect of C5 inhibition on MRB LCMV G neutralization: able to prevent viral neutralization
